“And” between values parts separate entries of the source, which are not always exact repeats. Identical values can stand only once. Like-named read-outs stand apart in the source and are kept apart here.
Key:
[1] = Turbidity, derived count rate of scattered light; type: physicochemical; details: for Count Rate: derived count rate of scattered light (turbidity); for Log10 Count Rate: turbidity, derived count rate of scattered light, data of Figure 2D
[2] = Zeta-potential measurement; type: physicochemical; details: for Zeta pot. / mV: 1 mg/mL in PBS pH 7.4 from 10 mg/mL DMSO stock, 1 d RT, 60 µL diluted in 600 µL 1 mM KCl, Zetasizer Nano ZS, Smoluchowski, mean of triplicate
Procedure, shortened: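 PBS pH 7.4, 1 mg/mL peptide (DMSO stock), 1 d RT aggregation; diluted in 1 mM KCl pre-read; mobility → zeta (Smoluchowski); n = 3, 2 expts averaged.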

[3] = Turbidity, derived count rate of scattered light; type: physicochemical; details: for Count Rate / kcps: derived count rate of scattered light at 633 nm, 173°, from zeta-potential measurement, 0.1 mg/mL in 1 mM KCl after 1 d at 1 mg/mL in PBS, turbidity / microscopic aggregation, mean of triplicate
Procedure, shortened: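 One-day room-temperature aggregation at 1 mg/mL in PBS (pH 7.4) preceded measurement; samples then went into 1 mM KCl. Triplicates per sample, two independent experiments averaged.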

[4] = tested on: HIV-1 infection of TZM-bl cells; test: HIV-1 infectivity enhancement assay, β-galactosidase luminescence; type: cell-based; details: for Rel-EFC: infection relative to EF-C (QCKIKQIINMWQ = 1); for Log10 Infection Rel EFC: log10 of infection relative to EF-C; for Log Infectivity: Log10 infection relative to EF-C, asymmetric std dev errors; for Log10 Infection Rel EF-C: HIV-1 infection of TZM-bl cells; for Abs. Inf. / RLU s-1: absolute infection rate, peptide 1.3 µM on cells, virus preincubated 10 min with fibrils, read 3 days post infection; for Abs. Inf.: β-galactosidase luminescence; for Log10 of Rel to EFC (Feb2021): Log10 of infection relative to EF-C, all peptides of FigS16
[5] = β-sheet content by ATR-FT-IR; type: physicochemical; details: for b -sheet / %: Fig. S7 panel A, β-sheet content by ATR-FT-IR; for ß-sheet / %: ATR-FT-IR of lyophilised 1 mg/mL PNF solution, peak integral ratio 1625-1635 cm-1, measured once
Procedure, shortened: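 Measurements on freeze-dried PNF powders used a diamond ATR element, 64 scans each, with β-sheet fraction derived as previously reported. CR reflects loss of fluorescamine-reactive monomer after 3 kDa ultrafiltration, averaged over triplicates.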

[6] = zeta potential of peptide assemblies
[7] = zeta-potential of peptide, source data of Figure 2C
[8] = zeta-potential of the peptide assemblies, mean, Figure 3A source data
[9] = Log10 of derived count rate of scattered light (turbidity)
[10] = log10 of derived count rate of scattered light (turbidity)
[11] = logarithm of count rate in kcps
[12] = turbidity, Log10 of derived count rate of scattered light, Figure 3A source data
[13] = Fig. S7 panel A (plotted against β-sheet content), TZM-bl cells
[14] = Fig. S7 panel B (plotted against CR), rounded to two decimals, TZM-bl cells
[15] = Log10 of infection rate relative to EF-C, Figure 3A source data
[16] = infection rate relative to EF-C, log10, data of Figure 2D
[17] = infection rate relative to EF-C, log10, source data of Figure 2C
[18] = HIV-1 infection relative to EF-C, Fig 23 plot, panels A and B, mean of 3 values
[19] = HIV-1 infection relative to EF-C, Fig 23 plot, single data point, replicate 1
[20] = HIV-1 infection relative to EF-C, Fig 23 plot, single data point, replicate 2
[21] = HIV-1 infection relative to EF-C, Fig 23 plot, single data point, replicate 3
[22] = n-fold infection vs virus only, relative to that of EF-C, 1.3 µM peptide

Substance | Count Rate [1] | Log10 Count Rate [1] | Zeta pot. / mV [2] | Zeta-Pot. [2, 6] | Zeta-Potential / mV [2, 7] | Zeta-Potential / mV [2, 8] | Log10 Count Rate [3, 9] | Count Rate / kcps [3] | Log10 Count Rate [3, 10] | Log10 Count Rate [3, 11] | Log10 Count Rate [3, 12] | Rel-EFC ([4]; 1.3 µM peptide) | Log10 Infection Rel EFC ([4]; 1.3 µM peptide) | Log Infectivity [4, 13] | Log Infectivity [4, 14] | Log10 Infection Rel EF-C [4, 15] | Log10 Infection Rel EF-C [4, 16] | Log10 Infection Rel EF-C [4, 17] | Abs. Inf. / RLU s-1 ([4]; mean of triplicate) | b -sheet / % [5] | also measured
CKIKQII | 74.6 | 1.873 | -3.83 mV | -3.83 | 5.568 mV | -3.83 mV | 1.873 | 74 ± 27 kcps and 75 kcps | 1.873 | 1.873 | 1.873 | 0,04 | -1,38 | -1.379 | -1.38 | -1.38 | -1.379 | -1.379 | 796.7 RLU s-1 | 25% | Abs. Infection at 0.26 µM ([4]; peptide 0.26 µM, mean of triplicate): 430
KIKIQINMWQRGD | 2783 | 3.445 | 1.7 mV |  | -0.495 mV | 1.69 mV | 3.445 | 2783 kcps | 3.445 | 3.4 | 3.445 | 0,01 | -1,92 | -1.917 |  | -1.92 | -1.917 | -1.917 | 197 RLU s-1 | 47.72% | Zeta-Pot. [2]: 1.69; Inf. rel. EF-C [4, 18]: 0.008366; Inf. rel. EF-C [4, 19]: 0.00461; Inf. rel. EF-C [4, 20]: 0.009457; Inf. rel. EF-C [4, 21]: 0.01103; Abs. Inf. ([4]; absolute HIV-1 infection signal, TZM-bl cells): 196.7; Inf. rel. EF-C [4, 22]: 0.01; ß-sheet / % [5]: 48%
QCKAKAQANM | 204.1 | 2.31 | -8.4 mV |  | -4.641 mV | -8.36 mV | 2.31 | 204 kcps |  | 2.3 | 2.31 | 0,01 | -1,83 | -1.835 | -1.83 | -1.83 | -1.835 | -1.835 | 563 RLU s-1 | 35.27% | Zeta-Pot. [2]: -8.357; Log10 Count Rate ([3]; turbidity, log10 of derived count rate of scattered light): 2.31; Inf. rel. EF-C [4, 18]: 0.02465; Inf. rel. EF-C [4, 19]: 0.03504; Inf. rel. EF-C [4, 20]: 0.01727; Inf. rel. EF-C [4, 21]: 0.02164; Abs. Inf. ([4]; absolute infection signal, HIV-1 on TZM-bl cells): 563.3; Inf. rel. EF-C [4, 22]: 0.01; ß-sheet / % [5]: 35%
RGDSKIKIQIC | 2699 | 3.431 |  | 15.1 | 15.65 mV | 15.1 mV | 3.431 | 2699 kcps | 3.431 |  | 3.431 | 0,6 | -0,22 | -0.2249 | -0.22 | -0.22 | -0.2249 | -0.2249 |  | 38.56% | Log10 of Rel to EFC (Feb2021) [4]: -0.22
RGDKIKIQINMWQ | 1554 | 3.1914 |  | 6.59 | 11.21 mV | 6.59 mV | 3.1914 | 1554 kcps | 3.1914 |  | 3.1914 | 0,76 | -0,12 | -0.1175 | -0.12 | -0.12 | -0.1175 | -0.1175 |  | 49.07% | Log10 of Rel to EFC (Feb2021) [4]: -0.12
